Data as given in ChEMBL document CHEMBL4190384, “Design, synthesis and biological evaluation of substituted (+)-SG-1 derivatives as novel anti-HIV agents” (Bioorg Med Chem Lett, 2018).

What was measured:
[1] = test system: Human immunodeficiency virus 1; assay: (§1) Antiviral activity against HIV1 virions derived from HIV/[…] or HIV/HA virions infected 293T cells using human A549 cells as target cells assessed as inhibition of viral replication using compound pre-mixed virions followed by incubation with target cells for 24 hrs by luciferase reporter gene assay based defective HIV1 pseudoviral assay; assay type: functional, organism-based; conditions: Human immunodeficiency virus 1, 24 h
[2] = test system: Human immunodeficiency virus 1; assay: as §1, with “HIV1 virions containing reverse transcriptase K103N mutant derived from” for “HIV1 virions derived from”; assay type: functional, organism-based; conditions: Human immunodeficiency virus 1, 24 h
[3] = test system: Human immunodeficiency virus 1; assay: (§2) Resistance index, ratio of IC50 for antiviral activity against HIV1 virions containing reverse transcriptase Y181C mutant derived from HIV/[…] or HIV/HA virions infected 293T cells using human A549 cells as target cells to IC50 for antiviral activity against wild type HIV1 virions derived from HIV/[…] or HIV/HA virions infected 293T cells using human A549 cells as target cells; assay type: functional
[4] = test system: Human immunodeficiency virus 1; assay: as §1, with “HIV1 virions containing reverse transcriptase E138K/M184V mutant derived from” for “HIV1 virions derived from”; assay type: functional, organism-based; conditions: Human immunodeficiency virus 1, 24 h
[5] = test system: Human immunodeficiency virus 1; assay: as §2, with “K103N” for “Y181C”; assay type: functional
[6] = test system: Human immunodeficiency virus 1; assay: as §2, with “E138K/M184V” for “Y181C”; assay type: functional
[7] = test system: Human immunodeficiency virus 1; assay: as §1, with “HIV1 virions containing reverse transcriptase Y181C mutant derived from” for “HIV1 virions derived from”; assay type: functional, organism-based; conditions: Human immunodeficiency virus 1, 24 h
A549 = assay: Cytotoxicity against human A549 cells at 10 uM after 48 hrs by CellTiter 96 AQueous one solution cell proliferation assay; assay type: cell-based; conditions: a549, 48 h
[8] = test system: Human immunodeficiency virus 1; assay: Antiviral activity against human HIV1 by VSV-G/HIV1 infection assay; assay type: functional, organism-based

SMILES | IC50 [1] [µM] | IC50 [2] [µM] | Ratio IC50 [3] | IC50 [4] [µM] | Ratio IC50 [5] | Ratio IC50 [6] | IC50 [7] [µM] | Activity (A549) | IC50 [8] [µM]
COc1cc2c(cc1OC)[C@H](c1cc(OC)c(OC)c(OC)c1)[C@@H](C)CC2 | 0.09 | 0.15 | >111 | 0.18 | 1.7 | 2 | > 10 | Non-Toxic | –
COc1cc2c(cc1OC)N(c1cc(OC)c(OC)c(OC)c1)CCC2 | 4.96 | – | – | – | – | – | – | Non-Toxic | –
COc1ccc([C@H]2c3cc(OC)c(OC)cc3C[C@H](C)[C@@H]2C)cc1OC | 0.86 | 1.38 | >11.6 | 4.02 | 1.6 | 4.7 | > 10 | Non-Toxic | 1.07
COc1ccc([C@H]2c3cc(OC)c(OC)cc3C[C@@H]2C)cc1OC | 4.42 | – | – | – | – | – | – | Non-Toxic | –
COc1ccc([C@@H]2c3cc(OC)c(OC)cc3C[C@H](C)[C@H]2C)cc1OC | > 10 | – | – | – | – | – | – | Non-Toxic | –
COc1cc2c(cc1OC)[C@H](c1cc(OC)c(OC)c(OC)c1)[C@@H](C)C2 | 0.34 | – | – | – | – | – | – | Non-Toxic | –
COc1cc(CCC(=O)N2C(=O)OC[C@@H]2Cc2ccccc2)cc(OC)c1OC | > 10 | – | – | – | – | – | – | Non-Toxic | –
COc1cc2c(cc1OC)[C@@H](c1ccc3c(c1)OCO3)[C@H](C)[C@@H](C)C2 | > 10 | – | – | – | – | – | – | Non-Toxic | –
COc1cc([C@H]2c3c(cc(OC)c(OC)c3OC)C[C@H](C)[C@@H]2C)cc(OC)c1OC | 0.69 | 0.76 | >14.5 | 5.91 | 1.1 | 8.6 | > 10 | Non-Toxic | –
CO/N=C(\c1ccc(OC)c(OC)c1)c1cc(OC)c(OC)c(OC)c1 | > 10 | – | – | – | – | – | – | Non-Toxic | –
COc1cc2c(cc1OC)[C@@H](c1cc(OC)c(OC)c(OC)c1)[C@H](C)CC2 | 1.02 | 1.73 | >9.8 | 7.13 | 1.7 | 7 | > 10 | Non-Toxic | –
COc1cc2c(cc1OC)[C@@H](c1cc(OC)c(OC)c(OC)c1)[C@H](C)[C@@H](C)C2 | > 10 | – | – | – | – | – | – | Non-Toxic | –
COc1cc2c(cc1OC)[C@H](c1cc(OC)c(OC)c(OC)c1)[C@@H](C)[C@@H](C)C2 | 0.16 | 0.18 | 67.5 | 1.38 | 1.1 | 8.6 | 10.8 | Non-Toxic | –
COc1cc2c(cc1OC)N(c1cc(OC)c(OC)c(OC)c1)C(=O)CC2 | > 10 | – | – | – | – | – | – | Non-Toxic | –
COc1ccc(/C(=N/O)c2cc(OC)c(OC)c(OC)c2)cc1OC | > 10 | – | – | – | – | – | – | Non-Toxic | –
COc1ccc(C(=O)c2cc(OC)c(OC)c(OC)c2)cc1OC | > 10 | – | – | – | – | – | – | Non-Toxic | –
CCC1CCc2cc(OC)c(OC)cc2N1c1cc(OC)c(OC)c(OC)c1 (racemic) | 0.72 | – | – | – | – | – | – | Non-Toxic | –
CCCC1CCc2cc(OC)c(OC)cc2N1c1cc(OC)c(OC)c(OC)c1 (racemic) | 1.28 | – | – | – | – | – | – | Non-Toxic | –
COc1cc2c(cc1OC)N(c1cc(OC)c(OC)c(OC)c1)C(C)CC2 (racemic) | 0.94 | 1.4 | >10.6 | 8.53 | 1.5 | 9.1 | > 10 | Non-Toxic | –
COc1cc2c(cc1OC)C(c1cc(OC)c(OC)c(OC)c1)CCC2 (racemic) | 6.71 | – | – | – | – | – | – | Non-Toxic | –
Nc1ccn([C@@H]2CS[C@H](CO)O2)c(=O)n1 [LAMIVUDINE] | 0.51 | – | – | > 10 | – | >19.6 | – | – | –
Cc1ccnc2c1NC(=O)c1cccnc1N2C1CC1 [NEVIRAPINE] | 0.013 | 0.91 | 220 | 0.022 | 70 | 1.7 | 2.86 | – | –
